Some results are limits rather than exact numbers.

What all share (type): binding
One assay has as its target T1, 5-HT2A receptor (Rattus norvegicus, UniProt P14842).
T1 construct: Frontal rat cortex is homogenised in ice-cold buffer; from tissue; host or cells: rat frontal cortex homogenate
Put plainly: affinity to 5-HT2A receptors, [3H]ketanserine displacement (Example A1). The method, then:
For in-vitro detection of the affinity to 5-HT2A receptors, the following test (Example A1), for example, can be used. The 5-HT2A receptors are exposed both to [^3H]ketanserine (a substance which is known for its affinity to the receptor) and also to the test compound. The decrease in the affinity of [^3H]ketanserine to the receptor is an indication of the affinity of the test substance to the 5-HT2A receptor. The detection is carried out analogously to the description by J. E. Leysen et al., Molecular Pharmacology, 1982, 21: 301-314, or as also described, for example, in EP 0320983.
Preparation of a suspension of 5-HT2A receptors: Frontal rat cortex is homogenised in ice-cold buffer. The homogenate is centrifuged at 4° C. and 50,000×for 10 minutes. The pellet is re-suspended in 2.5 ml of ice-cold tris buffer, made up with 10 ml of additional buffer and centrifuged as described. The pellet is then re-suspended in buffer and diluted to give a homogenate which comprises 60 mg of material/ml. 0.1 ml of the suspension, 100 μl of a 5 nM solution of [^3H]ketanserine, 100 μl of a solution of the test compound (concentration in the range from 10^−5 to 10^−10 mol per litre) are introduced into the incubation tubes and made up to 1 ml with buffer. The tubes are incubated at 37° C. for 15 minutes. […] The filters are analysed by liquid scintillation spectrometry in 8 ml of Triton-X scintillator liquid.

Another assay deals with 5-HT2C receptor (Homo sapiens, UniProt P28335). Put plainly: IC50 at the 5-HT2C receptor.
The target of a further assay is T2, 5-HT1A receptor (Homo sapiens, UniProt P08908).
T2 sequence (P08908 1-422): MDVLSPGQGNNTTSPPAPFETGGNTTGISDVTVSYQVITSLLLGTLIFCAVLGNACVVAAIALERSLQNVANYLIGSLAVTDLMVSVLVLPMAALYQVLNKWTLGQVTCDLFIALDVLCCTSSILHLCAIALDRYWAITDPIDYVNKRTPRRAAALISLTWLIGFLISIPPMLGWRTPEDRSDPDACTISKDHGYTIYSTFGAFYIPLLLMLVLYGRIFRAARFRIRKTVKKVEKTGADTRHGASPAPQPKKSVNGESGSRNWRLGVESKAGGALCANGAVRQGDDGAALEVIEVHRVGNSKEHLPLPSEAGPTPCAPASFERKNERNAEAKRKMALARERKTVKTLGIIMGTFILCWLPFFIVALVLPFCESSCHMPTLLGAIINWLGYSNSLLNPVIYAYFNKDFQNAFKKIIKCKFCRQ
The experiment in a line: IC50 at the 5-HT1A receptor.

For a further assay, the target named is 5-HT1B receptor (Homo sapiens, UniProt P28222). The experiment in a line: IC50 at the 5-HT1B receptor.
The target of the next assay is 5-HT1D receptor (Homo sapiens, UniProt P28221). The experiment in a line: IC50 at the 5-HT1D receptor.
A further assay deals with D2 receptor (Homo sapiens, UniProt P14416). The experiment in a line: IC50 at the D2 receptor.
Sequence of D2 receptor (P14416 whole entry): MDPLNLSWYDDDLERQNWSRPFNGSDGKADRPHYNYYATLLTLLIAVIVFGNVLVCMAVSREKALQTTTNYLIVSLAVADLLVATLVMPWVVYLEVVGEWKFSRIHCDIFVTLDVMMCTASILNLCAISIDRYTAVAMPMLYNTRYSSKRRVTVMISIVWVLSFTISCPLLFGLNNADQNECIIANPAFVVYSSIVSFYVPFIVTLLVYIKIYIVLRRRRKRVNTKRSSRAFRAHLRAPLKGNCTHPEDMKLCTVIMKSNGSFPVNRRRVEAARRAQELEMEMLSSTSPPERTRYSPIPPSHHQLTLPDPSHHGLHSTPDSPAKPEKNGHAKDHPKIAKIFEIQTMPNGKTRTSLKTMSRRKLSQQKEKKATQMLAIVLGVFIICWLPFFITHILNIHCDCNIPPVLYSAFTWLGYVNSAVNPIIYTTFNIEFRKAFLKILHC

T1 sequence (P14842 whole entry): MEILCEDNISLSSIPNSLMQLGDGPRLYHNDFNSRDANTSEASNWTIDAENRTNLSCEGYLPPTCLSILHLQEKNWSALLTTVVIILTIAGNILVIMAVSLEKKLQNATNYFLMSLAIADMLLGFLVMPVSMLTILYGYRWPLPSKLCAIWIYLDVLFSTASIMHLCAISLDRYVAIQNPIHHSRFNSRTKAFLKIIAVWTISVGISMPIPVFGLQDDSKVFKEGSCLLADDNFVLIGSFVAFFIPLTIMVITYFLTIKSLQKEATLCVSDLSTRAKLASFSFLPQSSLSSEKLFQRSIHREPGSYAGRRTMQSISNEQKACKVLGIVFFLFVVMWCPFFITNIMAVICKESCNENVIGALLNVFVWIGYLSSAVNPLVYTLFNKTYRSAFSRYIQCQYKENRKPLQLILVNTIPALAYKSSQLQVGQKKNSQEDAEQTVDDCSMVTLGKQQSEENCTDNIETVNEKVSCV
Sequence of 5-HT2C receptor (P28335 33-458): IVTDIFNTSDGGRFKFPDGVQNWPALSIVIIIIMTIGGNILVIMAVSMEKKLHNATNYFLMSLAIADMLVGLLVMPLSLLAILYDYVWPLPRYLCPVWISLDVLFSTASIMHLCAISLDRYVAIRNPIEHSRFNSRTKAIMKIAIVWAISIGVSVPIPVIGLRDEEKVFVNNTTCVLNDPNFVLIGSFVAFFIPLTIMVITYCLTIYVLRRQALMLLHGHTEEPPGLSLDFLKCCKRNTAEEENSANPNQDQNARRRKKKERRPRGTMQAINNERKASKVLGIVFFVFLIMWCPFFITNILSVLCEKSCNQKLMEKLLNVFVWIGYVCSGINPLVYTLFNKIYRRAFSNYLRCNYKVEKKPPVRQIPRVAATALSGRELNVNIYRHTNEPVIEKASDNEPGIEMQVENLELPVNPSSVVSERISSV
Sequence of 5-HT1D receptor (P28221 whole entry): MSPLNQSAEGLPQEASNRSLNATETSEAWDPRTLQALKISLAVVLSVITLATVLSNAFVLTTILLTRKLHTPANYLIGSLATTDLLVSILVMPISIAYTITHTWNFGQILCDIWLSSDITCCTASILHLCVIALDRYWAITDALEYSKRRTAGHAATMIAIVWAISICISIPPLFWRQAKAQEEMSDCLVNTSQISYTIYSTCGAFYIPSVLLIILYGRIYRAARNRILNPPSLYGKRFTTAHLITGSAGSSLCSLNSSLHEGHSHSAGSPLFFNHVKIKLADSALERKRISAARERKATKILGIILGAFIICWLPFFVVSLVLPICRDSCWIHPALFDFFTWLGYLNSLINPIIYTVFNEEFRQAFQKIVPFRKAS
Sequence of 5-HT1B receptor (P28222 whole entry): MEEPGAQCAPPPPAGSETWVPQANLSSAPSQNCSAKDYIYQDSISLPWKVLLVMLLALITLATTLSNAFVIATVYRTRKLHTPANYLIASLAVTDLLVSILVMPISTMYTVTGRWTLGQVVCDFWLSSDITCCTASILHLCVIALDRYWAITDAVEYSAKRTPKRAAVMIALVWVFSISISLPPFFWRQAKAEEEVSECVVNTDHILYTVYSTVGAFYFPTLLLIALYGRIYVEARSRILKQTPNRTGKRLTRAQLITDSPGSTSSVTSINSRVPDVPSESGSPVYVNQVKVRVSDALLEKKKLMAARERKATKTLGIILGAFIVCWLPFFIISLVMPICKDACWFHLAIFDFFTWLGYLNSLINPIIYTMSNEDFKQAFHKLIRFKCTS

Turning to `O=C(c1nccc2ccccc12)N1CCN(CCc2ccc(F)cc2)CC1` [Example 1, {4-[2-(4-fluorophenyl)ethyl]piperazin-1-yl}isoquinolin-1-ylmethanone], the IC50 was 1 nM at 5-HT2A receptor; over 1000 nM against 5-HT2C receptor; over 1000 nM on 5-HT1A receptor; over 1000 nM against 5-HT1B receptor; over 1000 nM at 5-HT1D receptor; over 1000 nM on D2 receptor. Also, the “factor by which the affinities differ” value on 5-HT2A receptor (5-HT2A versus 5-HT2C, 5-HT1A, 5-HT1B, 5-HT1D and D2 receptors) is “greater than 1000”.

For the origin of these results see patent US7329749B2, “Piperazinylcarbonylquinolines and -isoquinolines” (Merck Patent Gesellschaft, priority 2001, dated 2008).
